Laboratory results as given in US20080207452A1, “Ionic liquids derived from herbicidal carboxylic acids and certain trialkylamines or heteroarylamines” (Dow AgroSciences LLC, priority 2007, published 2008).

Assays:
Format in all cases: in vivo
[1] = tested on: Barnyardgrass Echinochloa crus-galli; assay: Post-emergence greenhouse herbicide evaluation, barnyardgrass; details: 240 g ae/ha, 14 days after application, visual injury 0-100% vs untreated
From the text: (§1) Post-Emergence Application Methods for Herbicide Evaluations.
(§2) A peat based potting soil, Metro-mix 360, was used as the soil media for this test. Metro-mix is a growing medium consisting of 35 to 45% specially processed Coconut Coir Pith, 10 to 20% horticultural grade vermiculite, 15 to 25% processed Ash Bark, 20 to 30% choice Canadian Sphagnum Peat Moss and proprietary nutrients and other ingredients. Several seeds of each species were planted in 10 cm square pots and top watered twice daily. Plant material was propagated in the greenhouse at a constant temperature of 26 to 28° C. and 50 to 60% relative humidity. Natural light was supplemented with 1000-watt metal halide overhead lamps with an average illumination of 500 μE m^−2 s^−1 photosynthetic active radiation (PAR). Day length was 16 hours. Plant material was top-watered prior to treatment and sub-irrigated after treatment. Treatments were applied with a tracksprayer manufactured by Allen Machine Works. The sprayer utilized an 8003E spray nozzle, spray pressure of 262 kPa pressure and speed of 2.8 mph (4.5 km/h) to deliver 187 L/Ha. The nozzle height was 46 cm above the plant canopy. The growth stage of the various weed species ranged from 2 to 4 leaf. Treatments were replicated 3 times. Plants were returned to the greenhouse after treatment and sub-watered throughout the duration of the experiment. Plant material was fertilized twice weekly with Hoagland's fertilizer solution. Percent visual injury assessments were made on a scale of 0 to 100% as compared to the untreated control plants (where 0 is equal to no injury and 100 is equal to complete death of the plant).

[2] = tested on: Large Crabgrass Digitaria Sanguinalis; assay: Post-emergence greenhouse herbicide evaluation, large crabgrass; details: 240 g ae/ha, 14 days after application, visual injury 0-100% vs untreated
From the text: as §1, §2

[3] = tested on: grapes (Vitis labrusca L.); assay: Volatility evaluation: injury to grapes from vapor exposure to treated wheat; details: wheat sprayed at 11200 g ae/ha, 24 hour vapor exposure at 40° C., evaluated 7 days after exposure
From the text: Methods for Evaluating the Volatility of 2,4-D Standards and Ionic Liquids of 2,4-D.
Four pots of wheat (Triticum aestivum L.) grown in 4 inch square pots were sprayed at 11200 g ae/ha with each of the different forms of 2,4-D. Treatments were applied with a tracksprayer manufactured by Allen Machine Works. The sprayer utilized an 8002E spray nozzle, spray pressure of 262 kPa pressure and speed of 1.5 mph (2.4 km/h) to deliver 187 L/Ha. The nozzle height was 46 cm above the plant canopy. The growth stage of the wheat was 1 to 2 leaf. The wheat plants were allowed to thoroughly dry to ensure that none of the spray solution was present when they were moved into a clean pot flat. A known sensitive species, grapes (Vitis labrusca L.) were placed at the opposite end of the flat. All of the pots were covered with a humidome with small ½ inch (1.27 cm) diameter holes cut into the end where the wheat was placed and a small box fan powered with a battery in the other end to pull air across the treated wheat plants and over the top of grapes. Plants were placed into a growth chamber with the temperature set at 40° C. with a 14 hour day and a 10 hour night cycle. A 24 hour exposure period was used after which the sensitive plants were then removed and placed in the greenhouse and evaluated for injury from vapor exposure to the treatments.

[4] = tested on: Broadleaf Dock Rumex obtusifolia; assay: Post-emergence greenhouse herbicide evaluation, broadleaf dock; details: 560 g ae/ha, 14 days after application, visual injury 0-100% vs untreated
From the text: as §1, §2

Kochia Kochia scoparia = assay: Post-emergence greenhouse herbicide evaluation, kochia; details: 560 g ae/ha, 14 days after application, visual injury 0-100% vs untreated
From the text: as §1, §2

SMILES | % Control Barnyardgrass Echinochloa crus-galli [1] | % Control Large Crabgrass Digitaria Sanguinalis [2] | % Injury to grapes from vapor exposure [3] | % Control Broadleaf Dock Rumex obtusifolia [4] | % Control Kochia Kochia scoparia (Kochia Kochia scoparia)
CCCCCCCCN(C)C.C[C@@H](Oc1ccc(Oc2ccc(C#N)cc2F)cc1)C(=O)O [Compound 4i] | 100% | 78% | – | – | –
CCCCCCCCN(C)C.O=C(O)COc1ccc(Cl)cc1Cl [Compound 3c] | – | – | 0% | – | –
CN(C)Cc1ccccc1.C[C@@H](Oc1ccc(Oc2ccc(C#N)cc2F)cc1)C(=O)O [Compound 4k] | 100% | 85% | – | – | –
CNC.O=C(O)COc1ccc(Cl)cc1Cl [2,4-D dimethylamine (DMA), 2,4-D dimethylamine, reference compound] | – | – | 78% | 40% | 76%
CCCCOC(=O)[C@H](C)Oc1ccc(Oc2ccc(C#N)cc2F)cc1 [cyhalofop Bu-ester, reference compound] | 100% | 92% | – | – | –
CCCCOCCOC(=O)COc1nc(Cl)c(Cl)cc1Cl [Triclopyr butoxyethylester (BEE), Triclopyr butoxyethylester, reference compound] | – | – | – | 79% | 95%
CCCCCCN(C)C.O=C(O)COc1ccc(Cl)cc1Cl [Compound 3b] | – | – | – | 73% | 97%
CCCCOCCOC(=O)COc1ccc(Cl)cc1Cl [2,4-D butoxyethylester (BEE), 2,4-D butoxyethylester, reference compound] | – | – | 100% | 96% | 95%
CC(Oc1ccc(Oc2ccc(C#N)cc2F)cc1)C(=O)O.CCCCCCCCCCCCCCN(C)C (stereo not shown) [Compound 4j] | 100% | 82% | – | – | –
CCCCCCCCn1ccnc1.O=C(O)COc1nc(Cl)c(Cl)cc1Cl [Compound 2c] | – | – | – | 52% | 92%
CCN(CC)CC.O=C(O)COc1nc(Cl)c(Cl)cc1Cl [Triclopyr triethylamine (TEA), Triclopyr triethylamine, reference compound] | – | – | – | 40% | 93%
CCCCCCCCCCCCCCCCN(C)C.O=C(O)COc1ccc(Cl)cc1Cl [Compound 3g] | – | – | 0% | – | –
CCCCCCN(C)C.O=C(O)COc1nc(Cl)c(Cl)cc1Cl [Compound 4b] | – | – | – | 49% | 96%
CCCCCCCCn1ccnc1.O=C(O)COc1ccc(Cl)cc1Cl [Compound 1c] | – | – | – | 82% | 97%
